Here are results for 1 molecule from EPA's ToxValDB 9.5 (doi:10.2903/j.efsa.2014.3817).

One series deals with Folsomia candida. The settings on record: chronic/long-term.
The next series relates to Apis mellifera. The settings on record: acute, mortality.
The subject of the next series is Colinus virginianus. The settings on record: reproduction developmental.
In another series the test system is Oncorhynchus mykiss. The settings on record: chronic/long-term; duration: 90 days; other.
The test system of the next series is Daphnia magna. The settings on record: chronic/long-term; duration: 21 days; reproduction.
The next series deals with Canidae. The note with it: chronic; duration: 1 years; oral; Dog Other; clinical chemistry.
The next series relates to Zea sp. The note with it: not reported; seedling emergence.
Another series has as its system Oryctolagus sp. The settings on record: reproduction developmental; histopathology: nonneoplastic.
Another series relates to Anas platyrhynchos. The note with it: acute; oral; unspecified; mortality.
In the next series the test system is Aphidius rhopalosiphi. The experiment in a line: LR50; higher = less toxic. The note with it: not reported; mortality.
The test system of a further series is Typhlodromus pyri. Kind of series: LR50; higher = less toxic. The settings on record: not reported; mortality.

As a reminder, the NOAEL is the highest dose or exposure tested at which no adverse effect was seen. As for `CC1=NNC(=O)N(/N=C/c2cccnc2)C1` [Pymetrozine], the NOEC with Folsomia candida is 1000 mg/kg; with Oncorhynchus mykiss it was 11.7 mg/L; in the series on Daphnia magna, 0.025 mg/L; in the series with Zea sp. it was 150 g/ha; with Tagia sp. (chronic/long-term, duration: 8 weeks) it was 0.00139 g/ha. Besides, the LD50 in the series on Apis mellifera (dermal) was over 100 µg/piece; in the series on Apis mellifera (oral, unspecified), over 62.7 µg/piece; with Anas platyrhynchos, at least 2000 mg/kg-day; in the series with Rattus norvegicus (acute, mortality) it was 3590 mg/kg-day. Besides, the NOEL in the series with Colinus virginianus worked out at 21.8 mg/kg-day. In addition, the no observed adverse effect level (NOAEL) with Canidae was 0.57 mg/kg-day; in the series with Oryctolagus sp., 10 mg/kg-day; in the series on Rattus norvegicus (reproduction developmental, reproduction), at least 110 mg/kg-day; in the series with Rattus norvegicus (subchronic, duration: 90 days, oral, clinical chemistry), 33 mg/kg-day. In the series with Tagia sp. (acute, duration: 14 days, mortality), this molecule registered an LC50 of 1100 mg/kg. For the same molecule, the LR50 in the series with Aphidius rhopalosiphi was 75 g/ha; with Typhlodromus pyri it was over 1200 g/ha.
